Measured values from PubChem BioAssay AID1963833 (Molecular Pharmacology Branch, DTP, NCI, 2024).

Test system: 883617-216-R-J1-PDC complex spheroid viability
Assay: Anticancer human tumor 883617-216-R-J1-PDC patient-derived bladder carcinoma cell line growth inhibition [POLQ]
Details: for IC50: curve of first compound; for viability, T/C: stronger effect = lower value
Method: Multicellular complex tumor spheroid response to Polymerase (POL) inhibitors (novobiocin, ART-558, RP6685) in combination with a variety of drugs and investigational agents in selected tumor cell lines
The POL inhibitors (novobiocin, ART-558, and RP6685) were evaluated both individually and in combination with standard of care and investigational anticancer small molecules within a complex spheroid model of solid tumors. . Complex spheroids include a stromal component modeled by human endothelial cells (HUVEC) and fibroblasts modeled by human mesenchymal stem cells (MSCs). The concentration ranges selected for each drug and investigational agent were based upon clinically achievable concentrations if the clinical Cmax of the agent was known.
Compounds. The drugs and investigational agents: novobiocin (NSC847541), ART-558 (NSC835418), RP-6685 (NSC848927), peposertib (NSC802822), ceralasertib (NSC780249), elimusertib (NSC800525), camonsertib (NSC841442), AZD-1390 (NSC803789), olaparib (NSC753686), talazoparib (NSC767125), rucaparib (NSC756644), sotorasib (NSC818433), MRTX-1133 (NSC836407), SN-38 (NSC673596), topotecan (NSC609699), epotoside (NSC141540), doxorubicin (NSC123127), gemcitabine (NSC613327), 5-fluorouracil (NSC19893), paclitaxel (NSC125973), vemurafenib (NSC761431), MSA-2 (NSC828583), SN-011 (NSC837082), adavosertib (NSC754352), prexasertib (NSC758257), carboplatin (NSC241240) and oxaliplatin (NSC266046), were obtained from the National Cancer Institute (NCI) Developmental Therapeutics Program Chemical Repository (21). The FDA-approved anticancer drug set is available from the Developmental Therapeutics Program at https://dtp.cancer.gov/organization/dscb/obtaining/. […] The stock solutions were prepared in dimethyl sulfoxide (DMSO, Sigma-Aldrich, St. Louis, MO, cat. D2650), except for the platinum compounds which were prepared in saline (Quality Biological, Gaithersburg, MD, cat. 114-055-101), at 800-fold the tested concentration and stored at -70 degrees C prior to their use. All drugs and investigational agents were tested over a range starting from a high concentration at or near the clinical Cmax and decreasing in half-log increments. If the clinical Cmax for an agent had not been determined, the highest concentration tested was 10 microM, except for SN-38, which was tested at a high concentration of 1 microM.
Cell Culture. All cells were maintained in an incubator at 37 degrees C and 5% CO2 with 95% humidity. The PDC lines were cultured according to standard operating procedures established by the NCI PDMR (https://pdmr.cancer.gov). Table 3 of the manuscript, lists the cell lines along with the number of the three cell types plated to form the mct-spheroids and media for tumor cell growth. After thawing, all PDC lines, except 997537-175-T-J1-PDC and 415267-285-R-J2-PDC, were cultured in Matrigel-coated flasks prepared with a working solution of 1X Ham's F-12 nutrient mix, without supplementation (Thermo Fisher Scientific, cat. 11765054), 100 U/mL penicillin-streptomycin (Thermo Fisher Scientific, cat. 15140122), and 2.5% Matrigel (Corning Inc., Corning, NY, cat. 354248) for the first three passages. The two PDC lines 997537-175-T-J1-PDC and 415267-285-R-J2-PDC were cultured on uncoated flasks. The 857933-349-R-J2-PDC line was cultured in 6C/Colon 1B media containing advanced DMEM/F-12 (Thermo Fisher Scientific, cat. 12634028), 10 mM HEPES (Thermo Fisher Scientific, cat. 15630080), 1X GlutaMAX supplement (Thermo Fisher Scientific, cat. 35050061), 0.1 mg/mL primocin (InvivoGen, San Diego, CA, cat. ant-pm-2), 10% defined fetal bovine serum, heat inactivated (HyClone Laboratories Inc., Logan, UT, cat. SH30070.03HI), 50% L-WRN conditioned media (ATCC, cat. CRL-3276), 1.25 mM N-Acetyl-L-cysteine (Sigma-Aldrich, cat. A9165), 10 mM nicotinamide (Sigma-Aldrich, cat. N0636), 1X B-27 supplement (Thermo Fisher Scientific, cat. 17504044), 1X N-2 supplement (Thermo Fisher Scientific, cat. […]

[1] = second compound 0.0316 µM, first compound 0.0316 µM
[2] = second compound 0.0316 µM, first compound 0.1 µM
[3] = second compound 0.0316 µM, first compound 0.316 µM
[4] = second compound 0.0316 µM, first compound 1 µM
[5] = second compound 0.0316 µM, first compound 3.16 µM
[6] = second compound 0.0316 µM, first compound 10 µM
[7] = second compound 0.1 µM, first compound 0.0316 µM
[8] = second compound 0.1 µM, first compound 0.1 µM
[9] = second compound 0.1 µM, first compound 0.316 µM
[10] = second compound 0.1 µM, first compound 1 µM
[11] = second compound 0.1 µM, first compound 3.16 µM
[12] = second compound 0.1 µM, first compound 10 µM
[13] = second compound 0.316 µM, first compound 0.0316 µM
[14] = second compound 0.316 µM, first compound 0.1 µM
[15] = second compound 0.316 µM, first compound 0.316 µM
[16] = second compound 0.316 µM, first compound 1 µM
[17] = second compound 0.316 µM, first compound 3.16 µM
[18] = second compound 0.316 µM, first compound 10 µM
[19] = second compound 1 µM, first compound 0.0316 µM
[20] = second compound 1 µM, first compound 0.1 µM
[21] = second compound 1 µM, first compound 0.316 µM
[22] = second compound 1 µM, first compound 1 µM
[23] = second compound 1 µM, first compound 3.16 µM
[24] = second compound 1 µM, first compound 10 µM
[25] = second compound 3.16 µM, first compound 0.0316 µM
[26] = second compound 3.16 µM, first compound 0.1 µM
[27] = second compound 3.16 µM, first compound 0.316 µM
[28] = second compound 3.16 µM, first compound 1 µM
[29] = second compound 3.16 µM, first compound 3.16 µM
[30] = second compound 3.16 µM, first compound 10 µM
[31] = second compound 10 µM, first compound 0.0316 µM
[32] = second compound 10 µM, first compound 0.1 µM
[33] = second compound 10 µM, first compound 0.316 µM
[34] = second compound 10 µM, first compound 1 µM
[35] = second compound 10 µM, first compound 3.16 µM
[36] = second compound 10 µM, first compound 10 µM
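Further: spheroids exposed to compounds for seven days before readout.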
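Wherever viability, T/C is given: 100% = DMSO vehicle control viability.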

CC(=O)O[C@H]1C(=O)[C@@]2(C)[C@H]([C@H](OC(=O)c3ccccc3)[C@]3(O)C[C@H](OC(=O)[C@H](O)[C@@H](NC(=O)c4ccccc4)c4ccccc4)C(C)=C1C3(C)C)[C@]1(OC(C)=O)CO[C@@H]1C[C@@H]2O + COC1C(OC(N)=O)C(O)C(Oc2ccc3c(O)c(NC(=O)c4ccc(O)c(CC=C(C)C)c4)c(=O)oc3c2C)OC1(C)C
IC50 (second compound 0.0316 µM): < 9.49 nM
IC50 (second compound 0.1 µM): < 9.49 nM
IC50 (second compound 0.316 µM): < 9.49 nM
IC50 (second compound 1 µM): < 9.49 nM
IC50 (second compound 3.16 µM): < 9.49 nM
IC50 (second compound 10 µM): < 9.49 nM
viability, T/C (second compound 0.0316 µM, first compound 0.00949 µM): 39.5%
viability, T/C (second compound 0.0316 µM, first compound 0.03 µM): 27.8%
viability, T/C (second compound 0.0316 µM, first compound 0.0949 µM): 26.4%
viability, T/C (second compound 0.0316 µM, first compound 0.3 µM): 20.8%
viability, T/C (second compound 0.0316 µM, first compound 0.949 µM): 18.2%
viability, T/C (second compound 0.0316 µM, first compound 3 µM): 19.8%
viability, T/C (second compound 0.1 µM, first compound 0.00949 µM): 40.2%
viability, T/C (second compound 0.1 µM, first compound 0.03 µM): 34.2%
viability, T/C (second compound 0.1 µM, first compound 0.0949 µM): 23.4%
viability, T/C (second compound 0.1 µM, first compound 0.3 µM): 23.7%
viability, T/C (second compound 0.1 µM, first compound 0.949 µM): 19.6%
viability, T/C (second compound 0.1 µM, first compound 3 µM): 20.7%
viability, T/C (second compound 0.316 µM, first compound 0.00949 µM): 50.6%
viability, T/C (second compound 0.316 µM, first compound 0.03 µM): 27.9%
viability, T/C (second compound 0.316 µM, first compound 0.0949 µM): 25.4%
viability, T/C (second compound 0.316 µM, first compound 0.3 µM): 17.5%
viability, T/C (second compound 0.316 µM, first compound 0.949 µM): 16.1%
viability, T/C (second compound 0.316 µM, first compound 3 µM): 20.6%
viability, T/C (second compound 1 µM, first compound 0.00949 µM): 42.2%
viability, T/C (second compound 1 µM, first compound 0.03 µM): 28.2%
viability, T/C (second compound 1 µM, first compound 0.0949 µM): 19%
viability, T/C (second compound 1 µM, first compound 0.3 µM): 26%
viability, T/C (second compound 1 µM, first compound 0.949 µM): 20.5%
viability, T/C (second compound 1 µM, first compound 3 µM): 15.9%
viability, T/C (second compound 3.16 µM, first compound 0.00949 µM): 42.7%
viability, T/C (second compound 3.16 µM, first compound 0.03 µM): 31.1%
viability, T/C (second compound 3.16 µM, first compound 0.0949 µM): 21.9%
viability, T/C (second compound 3.16 µM, first compound 0.3 µM): 22.7%
viability, T/C (second compound 3.16 µM, first compound 0.949 µM): 23.7%
viability, T/C (second compound 3.16 µM, first compound 3 µM): 17.1%
viability, T/C (second compound 10 µM, first compound 0.00949 µM): 42.2%
viability, T/C (second compound 10 µM, first compound 0.03 µM): 27.1%
viability, T/C (second compound 10 µM, first compound 0.0949 µM): 15.1%
viability, T/C (second compound 10 µM, first compound 0.3 µM): 16%
viability, T/C (second compound 10 µM, first compound 0.949 µM): 21%
viability, T/C (second compound 10 µM, first compound 3 µM): 21.6%

COc1cc(C2c3cc4c(cc3C(OC3OC5COC(C)OC5C(O)C3O)C3COC(=O)C23)OCO4)cc(OC)c1O (stereo unspecified) + COC1C(OC(N)=O)C(O)C(Oc2ccc3c(O)c(NC(=O)c4ccc(O)c(CC=C(C)C)c4)c(=O)oc3c2C)OC1(C)C
IC50 (second compound 0.0316 µM): > 10000 nM
IC50 (second compound 0.1 µM): > 10000 nM
IC50 (second compound 0.316 µM): > 10000 nM
IC50 (second compound 1 µM): > 10000 nM
IC50 (second compound 3.16 µM): > 10000 nM
IC50 (second compound 10 µM): > 10000 nM
viability, T/C [1]: 96.1%
viability, T/C [2]: 90%
viability, T/C [3]: 74.3%
viability, T/C [4]: 61.8%
viability, T/C [5]: 59.5%
viability, T/C [6]: 51.7%
viability, T/C [7]: 109%
viability, T/C [8]: 89.6%
viability, T/C [9]: 71.1%
viability, T/C [10]: 69%
viability, T/C [11]: 51.2%
viability, T/C [12]: 59.3%
viability, T/C [13]: 87%
viability, T/C [14]: 90.2%
viability, T/C [15]: 78.9%
viability, T/C [16]: 72.2%
viability, T/C [17]: 70.8%
viability, T/C [18]: 51%
viability, T/C [19]: 97%
viability, T/C [20]: 89.5%
viability, T/C [21]: 72.9%
viability, T/C [22]: 57.9%
viability, T/C [23]: 57.3%
viability, T/C [24]: 48.9%
viability, T/C [25]: 106%
viability, T/C [26]: 92.1%
viability, T/C [27]: 72.7%
viability, T/C [28]: 65.7%
viability, T/C [29]: 57.4%
viability, T/C [30]: 52.7%
viability, T/C [31]: 97.2%
viability, T/C [32]: 95.4%
viability, T/C [33]: 73%
viability, T/C [34]: 59.8%
viability, T/C [35]: 55.6%
viability, T/C [36]: 53%

COc1cccc2c1C(=O)c1c(O)c3c(c(O)c1C2=O)CC(O)(C(=O)CO)CC3OC1CC(N)C(O)C(C)O1 (stereo unspecified) + COC1C(OC(N)=O)C(O)C(Oc2ccc3c(O)c(NC(=O)c4ccc(O)c(CC=C(C)C)c4)c(=O)oc3c2C)OC1(C)C
IC50 (second compound 0.0316 µM): 186 nM
IC50 (second compound 0.1 µM): 320 nM
IC50 (second compound 0.316 µM): 251 nM
IC50 (second compound 1 µM): 214 nM
IC50 (second compound 3.16 µM): 308 nM
IC50 (second compound 10 µM): 151 nM
viability, T/C [1]: 62.3%
viability, T/C [2]: 49.8%
viability, T/C [3]: 45.3%
viability, T/C [4]: 4.36%
viability, T/C [5]: 0.76%
viability, T/C [6]: 0.26%
viability, T/C [7]: 67.3%
viability, T/C [8]: 59.6%
viability, T/C [9]: 50.8%
viability, T/C [10]: 6%
viability, T/C [11]: 0.55%
viability, T/C [12]: 0.43%
viability, T/C [13]: 70.4%
viability, T/C [14]: 58.2%
viability, T/C [15]: 47.5%
viability, T/C [16]: 6.74%
viability, T/C [17]: 1.39%
viability, T/C [18]: 1.91%
viability, T/C [19]: 73.9%
viability, T/C [20]: 55%
viability, T/C [21]: 45%
viability, T/C [22]: 3.27%
viability, T/C [23]: 0.35%
viability, T/C [24]: 1.2%
viability, T/C [25]: 61.1%
viability, T/C [26]: 48.6%
viability, T/C [27]: 50%
viability, T/C [28]: 4.18%
viability, T/C [29]: 1.17%
viability, T/C [30]: 0.37%
viability, T/C [31]: 59.5%
viability, T/C [32]: 50.9%
viability, T/C [33]: 41.5%
viability, T/C [34]: 5%
viability, T/C [35]: 0.8%
viability, T/C [36]: 0.3%
